In general, IC50 refers to the concentration needed to halve the response being measured.

The target of this assay is T1, Aurora-A122-403-C290A/C393A (Homo sapiens, UniProt O14965, C290A/C393A).
T1 construct: Human Aurora-A kinase domain 122-403 wild-type or C290A/ C393A mutant; His tag (pET30TEV vector) (N, cleaved yes); made in house; host or cells: E. coli RIL, co-expressed with lambda phosphatase (Aurora-A); tracer by solid phase synthesis
T1 sequence (O14965 122-403 C290A/C393A): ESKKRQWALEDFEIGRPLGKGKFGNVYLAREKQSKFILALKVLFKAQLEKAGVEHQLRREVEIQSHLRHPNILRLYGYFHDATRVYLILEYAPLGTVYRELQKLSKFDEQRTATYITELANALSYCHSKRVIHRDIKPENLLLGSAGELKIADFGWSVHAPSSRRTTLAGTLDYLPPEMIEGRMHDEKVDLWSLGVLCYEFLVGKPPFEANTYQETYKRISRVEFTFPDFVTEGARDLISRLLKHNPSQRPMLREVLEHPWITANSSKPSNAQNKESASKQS
The experiment in a line: Competition FA assay against FAM-Ahx-TACC3 522-536 tracer. The assay is classed as binding. On the procedure: Once completed, the mixtures were transferred into SPPS fritted reaction vessels and washed with H2O (5X, 10 mL, 2 min), DMF (5X, 5mL, 2 min) and DCM (5X, 5 mL, 2 min). The clean resins were dried under vacuum and the cyclic peptides cleaved from the resin following the general procedures described in previous sections. After Et2O precipitation, the crude materials were freeze-dried and redissolved in H2O/MeCN/TFA 90/10/0.1% v/v for preparative HPLC purification.
All disulfide peptide variants (ox) were produced in situ from their free-thiol solid precursors. For this, 2 mg of the pure peptide materials were dissolved in aqueous DMSO 33% v/v to a 10 mM concentration and were left open to air oxidation at room temperature overnight. […]
the peptides were employed for FA competition assays and IC50 evaluation without further additional […]
Fluorescence anisotropy (FA) assays – General information.
All assays were performed using 384-well plates(Greiner Bio-one, UK). […]
produced as described previously.11 All samples were prepared in 25 mM Tris,150 mM NaCl, 5 mM MgCl2, pH= 7.5, unless otherwise stated, and tested in triplicate using an EnVisionTM 2103 MultiLabel plate reader (PerkinElmer; Waltham, MA, USA).The parameters were set as follows: Excitation wavelength = 480 nm (30 nm bandwidth) and emission wavelength = 535 nm (30 nm bandwidth). Measured data were processed and analysed as previously described.12 Specifically, the perpendicular intensity (P) and parallel intensity (S) were subtracted by the control values and used for calculations of intensity and anisotropy using the following Equations 1, 2, 3, 4, and 5:
I= (2PG) + S Eq. (SI − 5)
r = (S − PG) Eq. (SI − 6)
L = r − r௠௜௡ Eq. (SI − 7)
y = (k + x + [FL]) − ඥ(k + x + [FL]2 − 4 ∗ x ∗ [FL]) Eq. (SI − 8)
y = r + r௠௜௡ − r௠௔௫ Eq. (SI − 9)
Where I = total intensity; P = perpendicular intensity; S = parallel intensity; G = instrument factor; r = anisotropy; Lb = ligand bound fraction; λ = change in intensity between bound and unbound states which […]
FA direct binding assays. […]
starting from 700 μM, diluted over 24 points in a 1/2 regime using the FAM-Ahx-labeled peptides at a final fixed concentration of 50 nM per well.
FA competition assays were performed using the same plates and buffer as described above, with the initial […]
14 points in a 1/2 regime. […]
after 4 h of incubation to enable appropriate sample equilibration. To prevent sample oxidation, when sulfhydryl peptides were analyzed DTT was added to the buffer (5 mM). In competition mode, the average anisotropy and the average standard deviation of the values derived from equation SI-6 were calculated and fit to a sigmoidal logistic model (equation SI-9) using Origin 2021. When using peptides for which full […]
For consistency, all the data […]
indicating the corresponding SD. […]

The mark [1] stands for this setting: as E1, oxidised (disulfide) species made in situ from 10 mM stock in aqueous DMSO 33% v/v, air, overnight, WT control (+DMSO) given the same DMSO incubation, mean ± SD, n = 3, read-out: IC50 (ox).

Where two headings read alike, the source gives them in different places. *1 amine or outer side, *2 acyl side, *3 side chain or, on linkers, in order; H or OH if unused. Where a SMILES comes first, the peptide text is derived from it. Bridges are numbered along the chain shown (N, C = ends). [ ]: non-standard residue; d: D form. Biphenyl(4,4'-CH2)2 = c1cc(-c2ccc(C[*:2])cc2)ccc1C[*:1]; Maleimide(3,4-diyl) = O=C1NC(=O)C([*:2])=C1[*:1]; Nle = CCCC[C@H](N)C(=O)O

For “Ac-LECKEESFCDPAEVL-NH2 (disulfide 3-9 (inferred)) [TACC3 518-532 L520C/R526C (ox), disulfide form of the Cys variant]”, the IC50 under setting [1] is recorded as at least 200 µM.
`CC(=O)N[C@@H](CCC(=O)O)C(=O)N[C@@H](CCC(=O)O)C(=O)N[C@@H](CO)C(=O)N[C@@H](Cc1ccc(F)cc1)C(=O)N[C@@H](CCCNC(=N)N)C(=O)N[C@@H](CC(=O)O)C(=O)N1CCC[C@H]1C(=O)N[C@@H](C)C(=O)N[C@@H](CCC(=O)O)C(=O)N[C@H](C(=O)N[C@@H](CC(C)C)C(=O)NCC(=O)N[C@H](C(=O)NCC(=O)N[C@@H](C)C(N)=O)[C@@H](C)O)C(C)C` [TACC3 522-536_(4-F)525F]: the half-inhibitory concentration (IC50) (SD, read-out: IC50) came to 184 ± 22 µM.
As for `CC(=O)N[C@@H](CCC(=O)O)C(=O)N[C@@H](CCC(=O)O)C(=O)N[C@@H](CO)C(=O)N[C@H]1CSSC[C@@H](C(=O)N[C@@H](C)C(=O)N[C@@H](CCC(=O)O)C(=O)N[C@H](C(=O)N[C@@H](CC(C)C)C(=O)NCC(=O)N[C@H](C(=O)NCC(=O)N[C@@H](C)C(N)=O)[C@@H](C)O)C(C)C)NC(=O)[C@H](CC(=O)O)NC(=O)[C@H](CCCNC(=N)N)NC1=O` [TACC3 522-536 F525C/P528C (ox)] (Ac-EESCRDCAEVLGTGA-NH2; disulfide 4-7), the IC50 under setting [1] was at least 500 µM.
Still for that read-out and setting: under `CC(=O)N[C@@H](CCC(=O)O)C(=O)N[C@@H](CCC(=O)O)C(=O)N[C@@H](CO)C(=O)N[C@@H](Cc1ccccc1)C(=O)N[C@H]1CSSC[C@@H](C(=O)N[C@@H](CC(C)C)C(=O)NCC(=O)N[C@H](C(=O)NCC(=O)N[C@@H](C)C(N)=O)[C@@H](C)O)NC(=O)[C@H](CCC(=O)O)NC(=O)[C@H](C)NC(=O)[C@@H]2CCCN2C(=O)[C@H](CC(=O)O)NC1=O` [TACC3 522-536 R526C/V531C (ox)] (Ac-EESFCDPAECLGTGA-NH2; disulfide 5-10) stands at least 500 µM.
`CC(=O)N[C@@H](CCC(=O)O)C(=O)N[C@@H](CCC(=O)O)C(=O)N[C@@H](CO)C(=O)N[C@@H](Cc1ccccc1)C(=O)N[C@@H](CCCNC(=N)N)C(=O)N[C@H]1CSC2=C(SC[C@@H](C(=O)N[C@H](C(=O)N[C@@H](CC(C)C)C(=O)NCC(=O)N[C@H](C(=O)NCC(=O)N[C@@H](C)C(N)=O)[C@@H](C)O)C(C)C)NC(=O)[C@H](C)NC(=O)[C@@H]3CCCN3C1=O)C(=O)NC2=O` [TACC3 522-536 D527C/E530C (mal)] (Ac-EESFRCPACVLGTGA-NH2; linker 6-9 via Maleimide(3,4-diyl)): under “as E1, Table S3 (mal): maleimide-constrained species, WT value is an individual replica control assay, mean ± SD, n = 3, SD, read-out: IC50 (mal)”, the 50% inhibitory concentration (IC50) stood at 186 ± 50 µM.
`CC(=O)N[C@H]1CSCc2ccc(cc2)-c2ccc(cc2)CSC[C@@H](C(=O)N[C@@H](C)C(=O)N[C@@H](CCC(=O)O)C(=O)N[C@H](C(=O)N[C@@H](CC(C)C)C(=O)NCC(=O)N[C@H](C(=O)NCC(=O)N[C@@H](C)C(N)=O)[C@@H](C)O)C(C)C)NC(=O)[C@H](CC(=O)O)NC(=O)[C@H](CCCNC(=N)N)NC(=O)[C@H](Cc2ccccc2)NC(=O)[C@H](CO)NC(=O)[C@H](CCC(=O)O)NC1=O` [TACC3 522-536 E522C/P528C (Bph)] (Ac-CESFRDCAEVLGTGA-NH2; linker 1-7 via Biphenyl(4,4'-CH2)2): the IC50 (as E1, Table S3 column (Bph): biphenyl-constrained species, WT value is an individual replica control assay, mean ± SD, n = 3, SD, read-out: IC50 (Bph)) was determined as 280 ± 32 µM.
`CC(=O)N[C@@H](CCC(=O)O)C(=O)N[C@@H](CCC(=O)O)C(=O)N[C@@H](CO)C(=O)N[C@@H](Cc1ccccc1)C(=O)N[C@H]1CSC2=C(SC[C@@H](C(=O)N[C@@H](CCC(=O)O)C(=O)N[C@H](C(=O)N[C@@H](CC(C)C)C(=O)NCC(=O)N[C@H](C(=O)NCC(=O)N[C@@H](C)C(N)=O)[C@@H](C)O)C(C)C)NC(=O)[C@@H]3CCCN3C(=O)[C@H](CC(=O)O)NC1=O)C(=O)NC2=O` [TACC3 522-536 R526C/A529C (mal)] (Ac-EESFCDPCEVLGTGA-NH2; linker 5-8 via Maleimide(3,4-diyl) (inferred)): the IC50 (as E1, Table S3 (mal): maleimide-constrained species, WT value is an individual replica control assay, mean ± SD, n = 3, read-out: IC50 (mal)) is at least 500 µM.
As for `CCCC[C@H](NC(=O)[C@H](CCC(=O)O)NC(=O)[C@H](C)NC(=O)[C@@H]1CCCN1C(=O)[C@H](CC(=O)O)NC(=O)[C@H](CCCNC(=N)N)NC(=O)[C@H](Cc1ccccc1)NC(=O)[C@H](CO)NC(=O)[C@H](CCC(=O)O)NC(=O)[C@H](CCC(=O)O)NC(C)=O)C(=O)N[C@@H](CC(C)C)C(=O)NCC(=O)N[C@H](C(=O)NCC(=O)N[C@@H](C)C(N)=O)[C@@H](C)O` [TACC3 522-536_V531nL] (Ac-EESFRDPAE[Nle]LGTGA-NH2), for the setting “read-out: IC50”, the IC50 was at least 300 µM.
Consider `CC(=O)N[C@@H](CCC(=O)O)C(=O)N[C@@H](CCC(=O)O)C(=O)N[C@@H](CO)C(=O)N[C@@H](Cc1ccc(C#N)cc1)C(=O)N[C@@H](CCCNC(=N)N)C(=O)N[C@@H](CC(=O)O)C(=O)N1CCC[C@H]1C(=O)N[C@@H](C)C(=O)N[C@@H](CCC(=O)O)C(=O)N[C@H](C(=O)N[C@@H](CC(C)C)C(=O)NCC(=O)N[C@H](C(=O)NCC(=O)N[C@@H](C)C(N)=O)[C@@H](C)O)C(C)C` [TACC3 522-536_(4-CN) -525F], for which, under “SD, read-out: IC50”, the IC50 turned out to be 138 ± 8 µM.
Turning to `CC(=O)N[C@@H](CCC(=O)O)C(=O)N[C@@H](CCC(=O)O)C(=O)N[C@@H](CO)C(=O)N[C@@H](Cc1ccccc1)C(=O)N[C@@H](CCCNC(=N)N)C(=O)N[C@H]1CSSC[C@@H](C(=O)N[C@H](C(=O)N[C@@H](CC(C)C)C(=O)NCC(=O)N[C@H](C(=O)NCC(=O)N[C@@H](C)C(N)=O)[C@@H](C)O)C(C)C)NC(=O)[C@H](C)NC(=O)[C@@H]2CCCN2C1=O` [TACC3 522-536 D527C/E530C (ox)] (Ac-EESFRCPACVLGTGA-NH2; disulfide 6-9), the half-inhibitory concentration (IC50) under setting [1] is at least 500 µM.
For the molecule `CC(=O)N[C@@H](CCC(=O)O)C(=O)N[C@@H](CCC(=O)O)C(=O)N[C@@H](CO)C(=O)N[C@@H](Cc1c(F)c(F)c(F)c(F)c1F)C(=O)N[C@@H](CCCNC(=N)N)C(=O)N[C@@H](CC(=O)O)C(=O)N1CCC[C@H]1C(=O)N[C@@H](C)C(=O)N[C@@H](CCC(=O)O)C(=O)N[C@H](C(=O)N[C@@H](CC(C)C)C(=O)NCC(=O)N[C@H](C(=O)NCC(=O)N[C@@H](C)C(N)=O)[C@@H](C)O)C(C)C` [TACC3 522-536_5f-525F], under “SD, read-out: IC50”, the IC50 is 97 ± 10 µM.
Still for that read-out and setting: under `CC(=O)N[C@@H](CCC(=O)O)C(=O)N[C@@H](CCC(=O)O)C(=O)N[C@@H](CO)C(=O)N[C@@H](Cc1ccc(Cl)cc1)C(=O)N[C@@H](CCCNC(=N)N)C(=O)N[C@@H](CC(=O)O)C(=O)N1CCC[C@H]1C(=O)N[C@@H](C)C(=O)N[C@@H](CCC(=O)O)C(=O)N[C@H](C(=O)N[C@@H](CC(C)C)C(=O)NCC(=O)N[C@H](C(=O)NCC(=O)N[C@@H](C)C(N)=O)[C@@H](C)O)C(C)C` [TACC3 522-536_(4-Cl)525F] stands 46 ± 8 µM.
On to `CC(=O)N[C@@H](CCC(=O)O)C(=O)N[C@@H](CCC(=O)O)C(=O)N[C@@H](CO)C(=O)N[C@@H](Cc1ccccc1)C(=O)N[C@@H](CCCNC(=N)N)C(=O)N[C@@H](CC(=O)O)C(=O)N1CCC[C@H]1C(=O)N[C@@H](C)C(=O)N[C@@H](CCC(=O)O)C(=O)N[C@H]1CSSC[C@@H](C(=O)NCC(=O)N[C@@H](C)C(N)=O)NC(=O)CNC(=O)[C@H](CC(C)C)NC1=O` [TACC3 522-536 V531C/T534C (ox)] (Ac-EESFRDPAECLGCGA-NH2; disulfide 10-13), for which the IC50 under setting [1] was at least 500 µM.
Regarding “Ac-EESYRDPAEVLGTGA-NH2 [TACC3 522-536_F525Y]”, under “read-out: IC50”, the half-maximal inhibitory concentration (IC50) was at least 500 µM.
